Experimental data taken from ChEMBL document CHEMBL4190187, “Discovery of pyrazolopyrimidine derivatives as novel inhibitors of ataxia telangiectasia and rad3 related protein (ATR)” (Bioorg Med Chem Lett, 2017).

Experiments:
[1] = biological target: CDK7/Cyclin H/MNAT1 (Homo sapiens) (UniProt P51946+P50613+P51948); test: Inhibition of recombinant full-length human CDK7/CyclinH/MAT1 at 1 uM using peptide as substrate after 40 mins in presence of [gamma-33P]ATP by scintillation counting method; format: protein-complex assay
[2] = biological target: Ribosomal protein S6 kinase alpha-5 (Homo sapiens) (UniProt O75582); test: Inhibition of recombinant human MSK1 (2 to end residues) at 1 uM using GRPRTSSFAEGKK as substrate after 40 mins in presence of [gamma-33P]ATP by scintillation counting method
[3] = biological target: T1, Serine/threonine-protein kinase ATR (Homo sapiens, UniProt Q13535); test: Inhibition of human recombinant FLAG-tagged full length ATR expressed in mammalian cell line co-expressing human recombinant cMyc-tagged full length ATRIP at 1 uM using GST-cMyc-p53 as substrate after 40 mins in presence of [gamma-33P]ATP by scintillation counting method
T1 sequence (Q13535 whole entry, looked up): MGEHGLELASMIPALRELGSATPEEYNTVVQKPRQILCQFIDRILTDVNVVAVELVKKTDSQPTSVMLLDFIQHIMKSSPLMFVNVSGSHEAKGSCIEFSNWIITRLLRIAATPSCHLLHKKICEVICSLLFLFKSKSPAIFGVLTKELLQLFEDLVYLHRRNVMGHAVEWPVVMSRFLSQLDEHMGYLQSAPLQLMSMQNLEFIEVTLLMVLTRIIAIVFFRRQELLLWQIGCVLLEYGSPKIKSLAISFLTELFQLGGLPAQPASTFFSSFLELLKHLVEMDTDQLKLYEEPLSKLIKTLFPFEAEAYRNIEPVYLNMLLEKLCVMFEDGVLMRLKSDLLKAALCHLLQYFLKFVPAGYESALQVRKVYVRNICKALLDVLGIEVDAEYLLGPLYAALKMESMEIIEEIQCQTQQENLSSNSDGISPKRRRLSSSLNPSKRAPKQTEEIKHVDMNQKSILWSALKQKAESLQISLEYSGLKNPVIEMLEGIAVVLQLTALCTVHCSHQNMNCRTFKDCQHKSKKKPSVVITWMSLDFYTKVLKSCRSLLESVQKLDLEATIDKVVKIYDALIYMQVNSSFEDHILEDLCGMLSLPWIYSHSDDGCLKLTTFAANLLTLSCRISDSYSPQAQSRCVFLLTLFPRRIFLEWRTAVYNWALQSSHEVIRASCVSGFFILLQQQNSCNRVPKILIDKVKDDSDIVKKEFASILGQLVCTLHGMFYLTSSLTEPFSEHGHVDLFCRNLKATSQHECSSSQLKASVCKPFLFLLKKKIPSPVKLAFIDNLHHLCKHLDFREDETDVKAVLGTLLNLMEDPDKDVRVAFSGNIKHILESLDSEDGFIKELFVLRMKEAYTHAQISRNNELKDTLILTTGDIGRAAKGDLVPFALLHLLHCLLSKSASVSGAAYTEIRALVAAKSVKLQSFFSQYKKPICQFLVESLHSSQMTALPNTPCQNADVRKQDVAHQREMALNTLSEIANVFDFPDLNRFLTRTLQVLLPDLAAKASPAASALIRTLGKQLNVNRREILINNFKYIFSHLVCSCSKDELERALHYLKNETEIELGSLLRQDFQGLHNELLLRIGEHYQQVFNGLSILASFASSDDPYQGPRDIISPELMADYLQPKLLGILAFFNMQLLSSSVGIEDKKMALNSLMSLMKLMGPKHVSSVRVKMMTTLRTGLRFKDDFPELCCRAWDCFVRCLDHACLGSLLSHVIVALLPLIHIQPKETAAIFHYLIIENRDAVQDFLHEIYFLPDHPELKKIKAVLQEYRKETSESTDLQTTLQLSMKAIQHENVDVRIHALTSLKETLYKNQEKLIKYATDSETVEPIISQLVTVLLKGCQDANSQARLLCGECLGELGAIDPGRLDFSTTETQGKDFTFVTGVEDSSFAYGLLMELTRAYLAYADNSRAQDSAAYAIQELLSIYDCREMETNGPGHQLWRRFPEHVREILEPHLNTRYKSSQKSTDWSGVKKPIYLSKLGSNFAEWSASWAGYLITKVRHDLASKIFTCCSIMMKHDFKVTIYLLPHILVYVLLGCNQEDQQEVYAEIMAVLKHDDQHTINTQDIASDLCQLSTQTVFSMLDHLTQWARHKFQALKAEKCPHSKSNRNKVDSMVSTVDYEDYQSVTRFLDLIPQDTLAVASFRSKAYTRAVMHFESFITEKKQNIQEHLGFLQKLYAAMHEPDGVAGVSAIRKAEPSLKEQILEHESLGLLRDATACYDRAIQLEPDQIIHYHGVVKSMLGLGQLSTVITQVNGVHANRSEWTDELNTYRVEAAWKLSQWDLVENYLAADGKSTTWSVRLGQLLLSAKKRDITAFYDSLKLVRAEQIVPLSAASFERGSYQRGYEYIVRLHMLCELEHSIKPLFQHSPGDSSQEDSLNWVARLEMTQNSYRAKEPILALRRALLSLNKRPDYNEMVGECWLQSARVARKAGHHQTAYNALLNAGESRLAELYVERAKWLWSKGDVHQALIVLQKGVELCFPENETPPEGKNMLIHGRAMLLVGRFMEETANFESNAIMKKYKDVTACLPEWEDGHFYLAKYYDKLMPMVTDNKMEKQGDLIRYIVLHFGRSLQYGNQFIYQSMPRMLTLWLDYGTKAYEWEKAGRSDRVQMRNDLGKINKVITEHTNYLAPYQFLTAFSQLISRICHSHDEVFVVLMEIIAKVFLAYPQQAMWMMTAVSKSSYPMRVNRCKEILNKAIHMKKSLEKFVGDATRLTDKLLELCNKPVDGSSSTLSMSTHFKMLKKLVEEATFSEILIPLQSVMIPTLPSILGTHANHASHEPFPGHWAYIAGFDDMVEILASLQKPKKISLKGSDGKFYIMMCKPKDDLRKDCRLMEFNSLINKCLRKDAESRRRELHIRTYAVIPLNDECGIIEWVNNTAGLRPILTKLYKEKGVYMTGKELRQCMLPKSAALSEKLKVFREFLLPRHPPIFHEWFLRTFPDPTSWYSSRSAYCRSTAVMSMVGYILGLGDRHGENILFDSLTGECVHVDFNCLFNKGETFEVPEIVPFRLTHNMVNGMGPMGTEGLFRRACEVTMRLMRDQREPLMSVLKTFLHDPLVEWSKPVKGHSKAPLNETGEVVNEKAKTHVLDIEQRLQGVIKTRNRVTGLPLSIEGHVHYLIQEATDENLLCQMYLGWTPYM

[4] = biological target: Protein kinase C epsilon type (Homo sapiens) (UniProt Q02156); test: Inhibition of recombinant human PKCepsilon (2 to end residues) at 1 uM using ERMRPRKRQGSVRRRV as substrate after 40 mins in presence of [gamma-33P]ATP by scintillation counting method
[5] = biological target: Tyrosine-protein kinase ABL1 (Homo sapiens) (UniProt P00519); test: Inhibition of recombinant full-length human Abl at 1 uM using EAIYAAPFAKKK as substrate after 40 mins in presence of [gamma-33P]ATP by scintillation counting method
[6] = biological target: Cyclin-dependent kinase 2/cyclin E1 (Homo sapiens) (UniProt P24864+P24941); test: Inhibition of recombinant full-length human CDK2/Cyclin E at 1 uM using histone H1 as substrate after 40 mins in presence of [gamma-33P]ATP by scintillation counting method; format: protein-complex assay
[7] = test system: Serine/threonine-protein kinase Chk2 (Homo sapiens), O96017 [I157T]; test: Inhibition of recombinant human CHK2 I157T mutant (5 to end residues) at 1 uM using KKKVSRSGLYRSPSMPENLNRPR as substrate after 40 mins in presence of [gamma-33P]ATP by scintillation counting method
[8] = test system: Ribosomal protein S6 kinase beta-1 (Homo sapiens), P23443 [T412E]; test: Inhibition of recombinant human p70S6K T412E mutant (1 to 421 residues) at 1 uM using KKRNRTLTV as substrate after 40 mins in presence of [gamma-33P]ATP by scintillation counting method
Sequence of Ribosomal protein S6 kinase beta-1 (Homo sapiens), P23443 [T412E] (P23443 whole entry T412E, looked up, the tested form may be a part): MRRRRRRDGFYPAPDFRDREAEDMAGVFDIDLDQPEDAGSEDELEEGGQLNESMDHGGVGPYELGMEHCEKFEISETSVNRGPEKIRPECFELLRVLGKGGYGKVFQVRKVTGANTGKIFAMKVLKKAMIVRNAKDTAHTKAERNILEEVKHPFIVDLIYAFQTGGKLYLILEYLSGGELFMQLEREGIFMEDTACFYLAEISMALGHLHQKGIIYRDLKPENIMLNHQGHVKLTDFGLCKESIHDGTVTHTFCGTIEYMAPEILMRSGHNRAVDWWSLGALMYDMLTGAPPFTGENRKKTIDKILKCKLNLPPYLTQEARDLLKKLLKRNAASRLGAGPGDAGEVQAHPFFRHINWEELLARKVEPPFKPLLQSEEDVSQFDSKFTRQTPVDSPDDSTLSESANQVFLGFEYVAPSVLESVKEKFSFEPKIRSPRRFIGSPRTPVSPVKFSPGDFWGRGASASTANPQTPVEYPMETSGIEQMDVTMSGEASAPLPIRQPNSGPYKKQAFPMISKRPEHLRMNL

[9] = biological target: PI3K p110 alpha/p85 alpha (Mus musculus) (UniProt P26450+P42337); test: Inhibition of recombinant full-length mouse p110a E545K mutant/p85a at 1 uM using phosphatidylinositol 4,5-bisphosphate as substrate after 40 mins in presence of [gamma-33P]ATP by scintillation counting method; format: protein-complex assay
[10] = biological target: Insulin-like growth factor 1 receptor (Homo sapiens) (UniProt P08069); test: Inhibition of recombinant human IGF-1R (959 to end residues) at 1 uM using KKKSPGEYVNIEFG as substrate after 40 mins in presence of [gamma-33P]ATP by scintillation counting method
[11] = test system: Angiopoietin-1 receptor (Homo sapiens), Q02763 [R849W]; test: Inhibition of recombinant activated human Tie2 R849W mutant (771 to end residues) at 1 uM using EFPIYDFLPAKKK as substrate after 40 mins in presence of [gamma-33P]ATP by scintillation counting method
Sequence of Angiopoietin-1 receptor (Homo sapiens), Q02763 [R849W] (Q02763 whole entry R849W): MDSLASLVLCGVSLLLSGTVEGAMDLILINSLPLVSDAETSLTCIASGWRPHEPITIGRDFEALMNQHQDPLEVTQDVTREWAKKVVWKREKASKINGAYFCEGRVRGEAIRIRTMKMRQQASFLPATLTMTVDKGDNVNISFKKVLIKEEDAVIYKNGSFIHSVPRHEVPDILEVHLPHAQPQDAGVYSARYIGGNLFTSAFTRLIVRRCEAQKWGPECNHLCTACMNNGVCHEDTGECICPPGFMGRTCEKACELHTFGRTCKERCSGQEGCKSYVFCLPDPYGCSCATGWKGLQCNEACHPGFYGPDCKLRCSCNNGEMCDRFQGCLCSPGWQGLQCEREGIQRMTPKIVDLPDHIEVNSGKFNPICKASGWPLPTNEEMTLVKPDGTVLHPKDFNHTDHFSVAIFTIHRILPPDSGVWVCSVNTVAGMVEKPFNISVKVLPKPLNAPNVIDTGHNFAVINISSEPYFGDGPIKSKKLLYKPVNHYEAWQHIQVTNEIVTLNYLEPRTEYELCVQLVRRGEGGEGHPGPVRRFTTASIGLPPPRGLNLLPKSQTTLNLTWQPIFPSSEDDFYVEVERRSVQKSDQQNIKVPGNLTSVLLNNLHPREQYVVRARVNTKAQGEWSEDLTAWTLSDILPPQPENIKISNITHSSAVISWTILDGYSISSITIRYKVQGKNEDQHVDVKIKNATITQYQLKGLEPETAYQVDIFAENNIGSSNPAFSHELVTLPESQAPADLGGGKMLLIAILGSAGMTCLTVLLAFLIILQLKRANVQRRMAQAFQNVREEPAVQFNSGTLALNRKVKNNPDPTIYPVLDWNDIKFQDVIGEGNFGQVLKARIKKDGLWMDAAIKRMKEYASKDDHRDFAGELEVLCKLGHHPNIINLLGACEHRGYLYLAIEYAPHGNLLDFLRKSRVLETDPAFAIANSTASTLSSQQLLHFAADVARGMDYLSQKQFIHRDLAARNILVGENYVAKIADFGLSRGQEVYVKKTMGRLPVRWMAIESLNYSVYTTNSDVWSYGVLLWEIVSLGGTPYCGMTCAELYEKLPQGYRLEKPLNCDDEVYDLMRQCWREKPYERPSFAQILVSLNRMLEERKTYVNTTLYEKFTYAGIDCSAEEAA

[12] = test system: Mast/stem cell growth factor receptor Kit (Homo sapiens), P10721 [V560G]; test: Inhibition of recombinant human cKit V560G mutant (544 to end residues) at 1 uM using GGMEDIYFEFMGGKKK as substrate after 40 mins in presence of [gamma-33P]ATP by scintillation counting method
[13] = biological target: T1, Serine/threonine-protein kinase ATR; test: Inhibition of recombinant full-length human ATR at 10 uM using GST-cMyc-p53 as substrate after 40 mins in presence of [gamma-33P]ATP by scintillation counting method
[14] = biological target: Mitogen-activated protein kinase kinase kinase 9 (Homo sapiens) (UniProt P80192); test: Inhibition of recombinant human MLK1 (134 to 414 residues) at 1 uM using casein as substrate after 40 mins in presence of [gamma-33P]ATP by scintillation counting method
[15] = biological target: cAMP-dependent protein kinase catalytic subunit alpha (Homo sapiens) (UniProt P17612); test: Inhibition of recombinant full-length human PRKACA at 1 uM using LRRASLG (Kemptide) as substrate after 40 mins in presence of [gamma-33P]ATP by scintillation counting method
[16] = biological target: Aurora kinase B (Homo sapiens) (UniProt Q96GD4); test: Inhibition of recombinant full-length human Aurora-B at 1 uM using AKRRRLSSLRA as substrate after 40 mins in presence of [gamma-33P]ATP by scintillation counting method
[17] = biological target: Serine/threonine-protein kinase Nek3 (Homo sapiens) (UniProt P51956); test: Inhibition of recombinant full-length human NEK3 at 1 uM using myelin basic protein as substrate after 40 mins in presence of [gamma-33P]ATP by scintillation counting method
[18] = biological target: Homeodomain-interacting protein kinase 4 (Homo sapiens) (UniProt Q8NE63); test: Inhibition of recombinant full-length human HIPK4 at 1 uM using RRRFRPASPLRGPPK as substrate after 40 mins in presence of [gamma-33P]ATP by scintillation counting method
[19] = biological target: Ribosomal protein S6 kinase alpha-2 (Homo sapiens) (UniProt Q15349); test: Inhibition of recombinant full-length human Rsk3 at 1 uM using KKKNRTLSVA as substrate after 40 mins in presence of [gamma-33P]ATP by scintillation counting method
Sequence of Ribosomal protein S6 kinase alpha-2 (Homo sapiens) (Q15349 whole entry, the tested form may be a part): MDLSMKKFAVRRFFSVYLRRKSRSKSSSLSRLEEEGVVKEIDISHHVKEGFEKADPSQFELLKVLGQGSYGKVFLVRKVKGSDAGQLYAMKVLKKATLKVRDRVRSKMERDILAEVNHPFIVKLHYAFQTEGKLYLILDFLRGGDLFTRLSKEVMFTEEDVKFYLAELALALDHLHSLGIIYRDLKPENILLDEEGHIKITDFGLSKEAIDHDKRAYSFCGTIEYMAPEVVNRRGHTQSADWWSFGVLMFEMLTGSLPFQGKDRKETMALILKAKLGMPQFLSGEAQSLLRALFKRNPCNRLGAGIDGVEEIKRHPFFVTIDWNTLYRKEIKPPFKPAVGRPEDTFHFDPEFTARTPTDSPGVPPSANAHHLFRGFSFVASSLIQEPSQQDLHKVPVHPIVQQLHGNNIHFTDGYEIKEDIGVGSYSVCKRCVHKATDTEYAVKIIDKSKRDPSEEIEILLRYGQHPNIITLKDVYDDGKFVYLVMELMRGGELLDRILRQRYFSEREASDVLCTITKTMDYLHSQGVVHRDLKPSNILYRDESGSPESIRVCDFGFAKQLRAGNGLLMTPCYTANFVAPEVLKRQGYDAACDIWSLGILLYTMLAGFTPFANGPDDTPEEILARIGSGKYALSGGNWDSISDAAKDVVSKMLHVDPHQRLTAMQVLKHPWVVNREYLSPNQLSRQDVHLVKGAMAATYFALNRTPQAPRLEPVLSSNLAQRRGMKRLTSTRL

[20] = biological target: Serine/threonine-protein kinase TAO1 (Homo sapiens) (UniProt Q7L7X3); test: Inhibition of recombinant human TAO1 (1 to 327 residues) at 1 uM using myelin basic protein as substrate after 40 mins in presence of [gamma-33P]ATP by scintillation counting method
[21] = biological target: Cytoplasmic tyrosine-protein kinase BMX (Homo sapiens) (UniProt P51813); test: Inhibition of recombinant full-length human BMX at 1 uM using poly(Glu,Tyr) 4:1 as substrate after 40 mins in presence of [gamma-33P]ATP by scintillation counting method
[22] = biological target: Protein-tyrosine kinase 2-beta (Homo sapiens) (UniProt Q14289); test: Inhibition of recombinant full-length human Pyk2 at 1 uM using poly(Glu,Tyr) 4:1 as substrate after 40 mins in presence of [gamma-33P]ATP by scintillation counting method
[23] = biological target: Focal adhesion kinase 1 (Homo sapiens) (UniProt Q05397); test: Inhibition of recombinant human FAK (411 to 686 residues) at 1 uM using EEEEYEEEEEEYYIIEEEEEEYEEEEEEYYEEEEEEKKKK as substrate after 40 mins in presence of [gamma-33P]ATP by scintillation counting method
[24] = biological target: Serine/threonine-protein kinase D3 (Homo sapiens) (UniProt O94806); test: Inhibition of recombinant full-length human PKD3 at 1 uM using KKLRRTLSVA as substrate after 40 mins in presence of [gamma-33P]ATP by scintillation counting method

## CS(=O)(=O)c1ccc(-n2nc(-c3cnc4[nH]ccc4c3)c3c(N)ncnc32)cc1
[1]
  inhibition: 7%
[2]
  inhibition: 0%
[3]
  inhibition: 96%
[4]
  inhibition: 2%
[5]
  inhibition: 66%
[6]
  inhibition: 3%
[7]
  inhibition: -2%
[8]
  inhibition: -2%
[9]
  inhibition: 11%
[10]
  inhibition: -2%
[11]
  inhibition: 1%
[12]
  inhibition: 76%
[13]
  inhibition: 106%
[14]
  inhibition: 13%
[15]
  inhibition: 4%
[16]
  inhibition: 7%
[17]
  inhibition: -7%
[18]
  inhibition: -4%
[19]
  inhibition: -8%
[20]
  inhibition: 7%
[21]
  inhibition: 47%
[22]
  inhibition: 25%
[23]
  inhibition: 3%
[24]
  inhibition: 10%
